Reference: patent US12419869B2, “Methods of treating multiple sclerosis” (Vanda Pharmaceuticals Inc., priority 2021, dated 2025)
Where “and” joins values, the source holds several entries; their conditions need not be identical. Equal values may be shown once.

Key:
[1] = test system: adult subjects with relapsing MS; assay: Brain MRI lesions (CUAL, Gd+ T1, new/enlarging T2) from baseline to Week 108; assay type: in vivo, human; conditions: for CUAL mean estimate (Lesions per year): baseline to Week 108, negative binomial regression, Full Analysis Set
Procedure: CUAL are new Gd+T1 lesions plus new or enlarging T2 lesions (without double-counting of lesions).
MRI scans were performed at Visits 2 (Baseline), 10 (Week 60), and 14 (EOT) and at any unscheduled visit (U1, U2, etc.). If applicable, MRI scans also were performed at the corresponding visits in the PTOP (Visits 10A and 14A). Testing at all visits were performed up to 7 days prior to or after the visit date.
MRI variables included the number and volume of new and total Gd+ lesions on T1-weighted MRI scans, number of new and enlarging lesions and lesion volume on T2-weighted MRI, and global measures of loss of brain tissue.
T1-weighted imaging before and after i.v. administration of 0.1 mmol/kg body weight (=0.2 mL/kg) of Gd as well as PD-T2-weighted imaging was performed. Gd may cause nausea and vomiting and in very rare cases allergic reactions that could require immediate anti-anaphylactic therapy (such as steroids, epinephrine/adrenaline, etc.).
Patients (18-55 years) with RMS (expanded disability status scale scores: 0-5.5) were randomized (1:1) to receive ponesimod (PON) 20 mg or teriflunomide (TER) 14 mg for 108 weeks. MRI assessments were: volume of T2 lesions; mean number of new gadolinium-enhancing (Gd+) T1 lesions and new/enlarging T2 lesions; and absence of active MRI lesions at week 108. NEDA-3 status (absence of confirmed relapse, Gd+T1 lesions and new/enlarging T2 lesions on annual MRIs, and 12-week confirmed disability accumulation) was evaluated from baseline to week 108.

[2] = test system: adult subjects with relapsing MS; assay: Treatment-emergent adverse events and premature treatment discontinuation, phase III study (Study 1); assay type: in vivo, human; conditions: in vivo
Procedure: A total of 1438 MS patients have received PONVORY at doses of at least 2 mg daily. These patients were included in Study 1 (2-year active-controlled versus teriflunomide 14 mg) [see Clinical Studies (14)] and in a Phase 2 (6-month placebo-controlled) study in patients with MS and the uncontrolled extension studies.

[3] = test system: adult subjects with relapsing MS; design: species or system human; conditions: in vivo
From the text: Based on the individual case review, most ALT/AST increases ≥3×ULN occurred as a single transient asymptomatic episode, resolving with continued treatment or after protocol mandated treatment discontinuation. All but one case of bilirubin increase ≥2×ULN occurred in subjects with pre-treatment bilirubin increases. One case of potential Hy's law occurred in a subject with pre-existing transaminase elevation (ALT>5×ULN), and the event fully resolved within 2 weeks after treatment discontinuation.
In Study 1, elevations of ALT to 5-fold the upper limit of normal (ULN) or greater occurred in 4.6% of patients treated with PONVORY compared to 2.5% of patients who received teriflunomide 14 mg. […] The median time to an elevation of 3-fold the ULN was 3 months. The majority (89%) of patients with ALT increases 3-fold or greater the ULN continued treatment with PONVORY with values returning to less than three times the ULN within approximately 2-4 weeks.

[4] = test system: adult subjects with relapsing MS; assay: Pulmonary function (percent predicted FEV1), Study 1; assay type: in vivo, human
Procedure: In Study 1, the reduction from baseline in percent predicted FEV1 at 2 years was 8.3% in PONVORY-treated patients compared to 4.4% in patients receiving teriflunomide 14 mg. In Study 1, 7 patients discontinued PONVORY because of pulmonary adverse events. There is insufficient information to determine the reversibility of the decrease in FEV1 or FVC after treatment discontinuation. PONVORY should be used with caution in patients with severe respiratory disease (i.e., pulmonary fibrosis, asthma, and chronic obstructive pulmonary disease). Spirometric evaluation of respiratory function should be performed during therapy with PONVORY if clinically indicated.

[5] = test system: adult subjects with relapsing MS; assay: Blood pressure, Study 1; assay type: in vivo, human
Procedure: An increase in blood pressure with PONVORY was first detected after approximately 1 month of treatment initiation and persisted with continued treatment. Hypertensive events were reported as an adverse reaction in 10.1% of PONVORY-treated patients and in 9.0% of patients receiving teriflunomide 14 mg. One patient treated with PONVORY experienced a hypertensive crisis but had evidence of longstanding hypertensive heart disease. Blood pressure should be monitored during treatment with PONVORY and managed appropriately.

CCC/N=C1\S/C(=C\c2ccc(OC[C@H](O)CO)c(Cl)c2)C(=O)N1c1ccccc1C [Ponesimod, (R)-5-[3-chloro-4-(2,3-dihydroxy-propoxy)-benz[Z]ylidene]-2-([Z]-propylimino)-3-o-tolyl-thiazolidin-4-one]
CUAL mean estimate (Lesions per year) [1]: 1.405 lesions per year | CUAL mean estimate (Lesions per year) ([1]; listed as ponesimod): 1.405 lesions per year | CUAL treatment effect (Rate Ratio) ponesimod vs teriflunomide ([1]; baseline to week 108): 0.444 and 0.44 | LS mean difference (PON-TER) in change from baseline in total volume of T2 lesions ([1]; baseline to week 108): −399.2 mm^3 | Mean number of new Gd+ T1 lesions per scan / per MRI ([1]; baseline to week 108): 0.18 | Mean number of new/enlarging T2 lesions per year ([1]; baseline to week 108): 1.40 | Rate ratio, new Gd+ T1 lesions per scan, PON vs TER ([1]; baseline to week 108): 0.42 | Rate ratio, new/enlarging T2 lesions per year, PON vs TER ([1]; baseline to week 108): 0.44 | Raw mean lesions/year (CUAL) ([1]; baseline to week 108): 1.559 lesions/year | Reduction of number of CUALs compared to teriflunomide 14 mg ([1]; baseline to week 108): 56% | Total number of lesions (CUAL) ([1]; baseline to week 108): 1671 | Relative reduction, T1 Gd-enhancing lesions per MRI ([1]; vs teriflunomide 14 mg): 58.5% (p < 0001) | Relative reduction, new or enlarging T2 hyperintense lesions per year ([1]; vs teriflunomide 14 mg): 55.7% (p < 0001) | Odds ratio PON vs TER for absence of new Gd+ T1 lesions ([1]; week 108): 2.18 | Odds ratio PON vs TER for absence of new/enlarging T2 lesions ([1]; week 108): 1.71 | Day 1 AESI Atrioventricular block first degree ([2]; human): (0.5) % | Day 1 AESI Bradycardia ([2]; human): (0.7) % | Day 1 AESI Bundle branch block left ([2]; human): (0.2) % | Day 1 AESI Bundle branch block right ([2]; human): (0.2) % | Day 1 AESI Defect conduction intraventricular ([2]; human): (0.4) % | Day 1 AESI Sinus arrhythmia ([2]; human): (0.2) % | Day 1 AESI Sinus bradycardia ([2]; human): (0.2) % | AE leading to discontinuation, SOC Blood and lymphatic system disorders ([2]; human, 2 year): (0.5) % | AE leading to discontinuation, SOC Cardiac disorders ([2]; human, 2 year): (0.2) % | AE leading to discontinuation, SOC Eye disorders ([2]; human, 2 year): (0.9) % | AE leading to discontinuation, SOC Gastrointestinal disorders ([2]; human, 2 year): (0.7) % | AE leading to discontinuation, SOC General disorders and administration site conditions ([2]; human, 2 year): (0.5) % | AE leading to discontinuation, SOC Hepatobiliary disorders ([2]; human, 2 year): (0.5) % | AE leading to discontinuation, SOC Investigations ([2]; human, 2 year): (2.1) % | AE leading to discontinuation, SOC Musculoskeletal and connective tissue disorders ([2]; human, 2 year): (0.2) % | AE leading to discontinuation, SOC Neoplasms benign, malignant and unspecified (incl cysts and polyps) ([2]; human, 2 year): (0.2) % | AE leading to discontinuation, SOC Nervous system disorders ([2]; human, 2 year): (0.4) % | AE leading to discontinuation, SOC Pregnancy, puerperium and perinatal conditions ([2]; human, 2 year): (0.5) % | AE leading to discontinuation, SOC Psychiatric disorders ([2]; human, 2 year): (0.2) % | AE leading to discontinuation, SOC Respiratory, thoracic and mediastinal disorders ([2]; human, 2 year): (1.2) % | AE leading to discontinuation, SOC Skin and subcutaneous tissue disorders ([2]; human, 2 year): (0.2) % | AE leading to discontinuation, SOC Social circumstances ([2]; human, 2 year): (0.4) % | AE leading to discontinuation, SOC Vascular disorders ([2]; human, 2 year): (0.5) % | AESI Effect on heart rate and rhythm (including hypotension) ([2]; human, 2 year): (5.1) % | AESI Non-skin malignancy ([2]; human, 2 year): (0.2) % | AESI Skin malignancy ([2]; human, 2 year): (0.9) % | Discontinuation reason: Physician decision, Adverse event ([2]; human, 2 year): (5.1) % | Discontinuation reason: Pre-specified study treatment discontinuation criteria ([2]; human, 2 year): (2.1) % | Discontinuation reason: Subject decision, Tolerability related ([2]; human, 2 year): (1.4) % | Incidence of basal cell carcinoma ([2]; human, 2 year): 0.4% | Overall rate of infections ([2]; human, 2 year): 54.2% | Subjects discontinued due to AEs or tolerability related reasons ([2]; human, 2 year): 6.5% | Subjects who prematurely discontinued study treatment ([2]; human, 2 year): (16.6) % | Subjects with at least one Drug-Related AE ([2]; human, 2 year): (49.2) % | Subjects with at least one Severe AE ([2]; human, 2 year): (6.9) % | TEAE ALT increased ([2]; human, 2 year): 19.5% | TEAE headache ([2]; human, 2 year): 11.5% | TEAE nasopharyngitis ([2]; human, 2 year): 19.3% | TEAE upper respiratory tract infection ([2]; human, 2 year): 10.6% | Adverse reaction: C-reactive protein increased ([2]; human, 2 years): 2% | Adverse reaction: Cough ([2]; human, 2 years): 4% | Adverse reaction: Dizziness ([2]; human, 2 years): 5% | Adverse reaction: Dyspnea ([2]; human, 2 years): 5% | Adverse reaction: Hepatic transaminase elevation ([2]; human, 2 years): 23% | Adverse reaction: Hypercholesterolemia ([2]; human, 2 years): 2% | Adverse reaction: Hypertension ([2]; human, 2 years): 10% | Adverse reaction: Pain in extremity ([2]; human, 2 years): 4% | Adverse reaction: Pyrexia ([2]; human, 2 years): 2% | Adverse reaction: Somnolence ([2]; human, 2 years): 3% | Adverse reaction: Urinary tract infection ([2]; human, 2 years): 6% | Adverse reaction: Vertigo ([2]; human, 2 years): 2% | Discontinuation reason: Lost to follow-up [2]: (0.4) % | Discontinuation reason: Physician decision [2]: (7.1) % | Discontinuation reason: Physician decision, Lack of efficacy/treatment failure [2]: (0.7) % | Discontinuation reason: Physician decision, Other [2]: (1.2) % | Discontinuation reason: Reason not provided [2]: (0.2) % | Discontinuation reason: Subject decision [2]: (6.9) % | Discontinuation reason: Subject decision, Efficacy related [2]: (1.2) % | Discontinuation reason: Subject decision, Not known [2]: (0.9) % | Discontinuation reason: Subject decision, Other [2]: (3.4) % | Discontinuation rate because of elevations in hepatic enzymes ([3]; human, 2 year): 2.3% | Patients with elevations of ALT to 5-fold the ULN or greater ([3]; human, 2 year): 4.6% | Subjects with ALT increase >3×ULN (label: 3-fold the ULN or greater) ([3]; human, 2 year): 17.3% | Subjects with ALT increase >8×ULN ([3]; human, 2 year): 0.7% | Median time to an ALT elevation of 3-fold the ULN [3]: 3 months | Patients with ALT increases 3-fold or greater the ULN who continued treatment [3]: 89% | Time for ALT values returning to less than three times the ULN on continued treatment [3]: 2-4 weeks | Patients who discontinued because of pulmonary adverse events [4]: 7 | Reduction from baseline in percent predicted FEV1 at 2 years [4]: 8.3% | Average increase in diastolic blood pressure ([5]; Study 1): 2.8 mm Hg | Average increase in systolic blood pressure ([5]; Study 1): 2.9 mm Hg | Time after treatment initiation at which blood pressure increase was first detected ([5]; in vivo): approximately 1 month
